Data on 30 molecules can be found in patent publication US11793218B2, “Sweetener and flavor compositions, methods of making and methods of use thereof” (EPC Natural Products Co., Ltd., priority 2018, dated 2023).

The nature of data set [1]: Sensory evaluation of the samples prepared in Example 50 (Example 52). It counts as in vivo, human. Details: key to Intensity of Smell: “+” for slight; “++” for moderate; “+++” for very strong.
Procedure: The reaction partner (amino acid, carbohydrate source) were dissolved/suspended in the reaction solvent and transferred into a glass beaker filled with sand pre-heated for at least 30 minutes at the reaction temperature in a drying oven. After the planned reaction time, the vials were transferred into ice water. After cooling to room temperature, sensory analysis and analytical characterization was performed.
For evaluation of the taste profile, the samples were tested by a panel of four people. 1 trained taster tasted independently the samples first. The taster was asked to describe the taste profile and score 0-5 according to the increasing sugar likeness, bitterness, aftertaste and lingering taste profiles. The first taster was allowed to re-taste, and then make notes for the sensory attributes perceived. Afterwards, another 3 tasters tasted and the attributes were noted and discussed openly to find a suitable description. In case that more than 1 taster disagreed with the results, the tasting was repeated. In some sensory test results (above), the taste rating was expressed by “+”, which means the intensity of the factors is shown by three levels. “+” for slight, “++” for moderate and “+++” for very strong.
For data set [2] the following is noted: cited from earlier work.
Data set [3] can be described thus: Sensory analysis of odor/smell, color and taste of Maillard reaction samples at 22 C (Examples 55-62). It counts as in vivo, human. On the procedure: The reaction partners were dissolved in water and then warmed glycerin (60° C.) was added. […]
[…] After 20 minutes in the ice bath the sealed vials were put in a water bath set to 22° C.
The odor/smell was assessed independently by 3 persons; the final description was agreed after discussion. […] The taste was assessed independently by 3 persons either in the original samples or after appropriate dilution to achieve relevant concentrations of sugars and steviol-glycosides (i.e. 5-9% SE); the final description was agreed after discussion.

Data set [4] is described as follows: HPLC/DAD/MS detection of MRI (Amadori) products and degradation kinetics of reactants at various pH-conditions. Conditions: reaction of Phe and Xyl.
The nature of data set [5]: Assay to test reducing power (active iron-III reduction), Example 64. It counts as physicochemical. Particulars: 100° C., up to 5.0 hours, diluted 1:10; FIG. 49.
A short description of data set [6]: DPPH radical-scavenging activity, Example 65. It counts as physicochemical. Conditions: 100° C., up to 5.0 hours, diluted 1:10; FIG. 50. On the procedure: 1 mg 1,1-Diphenyl-2-picrylhydrazyl radical (DPPH)/ml ethanol, dilution to assay concentration were prepared in ethanol (40 μg/mL); Calibration samples were prepared with Ascorbic acid in a concentration of 0-10 μg/mL; as a negative control sample, water was used.
Samples in aqueous solution were used as such or diluted with water.
A 0.1 ml sample (or calibration standard) was mixed with 3.9 ml solution of DPPH (100 μMolar) and reacted while protected from light at room temperature for 30 min. Absorbance was determined at 517 nm against ethanol.
10 mM of amino acid and/or 10 mM sugar were dissolved in 10 ml 0.1 mM KH2PO4-buffer, pH=7.8.
The samples were kept at 100° C. in sealed glass vials (Pyrex 15 ml with screw caps) for 0 (before reaction), 2.5 or 5.0 hours. Thereafter the samples were transferred to an ice water bath and cooled down to room temperature. These samples were diluted 1:10 and used for the test assay for anti-oxidant potential.

Data set [7] is described as follows: Sensory analysis of odor/smell, color and taste of Maillard reaction samples at 22 C (Examples 55-62). It counts as in vivo, human. This is another data set of the same source.
Data set [8] in a line: Sensory evaluation of GSGs and SGs, Thaumatin, NHDC and combinations in water (Example 255). It counts as in vivo, human. On the procedure: 4.5 ppm Thaumatin (equivalent to 10 ppm EPCalin) was dissolved in water. Increasing amounts of NHDC (1-5 ppm) were added to the solution and the sensory properties were evaluated.
50 ppm (GSGs and SGs) were dissolved in water. Increasing amounts of NHDC (1-5 ppm) were added to the solution and the sensory properties were evaluated.
50 ppm (GSGs and SGs) and 4.5 ppm Thaumatin (equivalent to 10 ppm EPCalin) were dissolved in water. Increasing amounts of NHDC (1-5 ppm) were added to the solution and the sensory properties were evaluated.
Sweetness intensity was rated on 5-point scale
Sweetness intensity was rated on a 5-point scale

Setting [9] is: Table 52.1, samples of Example 50 after reaction.
[10] abbreviates: Table 56.1, negative controls (no carbohydrate source), 10 ml glycerin/water=9:1, 100° C., 40 minutes.
[11] abbreviates: Table 52.6, Glycerin 10 ml, 100° C., 40 min.
[12] abbreviates: Table 52.7, Glycerin 10 ml, 1 h, 120° C.
[13] abbreviates: Table 57.3, after reaction, 10 ml KH2PO4, pH 7.8, 2.5 h, 120° C.
The mark [14] stands for this setting: Table 52.2, 1 ml water + 9 ml Glycerin, 0.67 h, 100° C.
Setting [15] is: Table 57.2, before reaction, 10 ml KH2PO4, pH 7.8.
The mark [16] stands for this setting: Table 52.5, 1 ml water + 9 ml Glycerin, 2.0 h, 120° C.

Consider `N[C@@H](CCC(=O)O)C(=O)O` [167 mMol Glu], for which, in data set [1] (setting [9]), the Smell result was “caramel” and the Taste result is given as “Sweet”.
With `CC1(C)[C@@H](O[C@H]2O[C@H](C(=O)O)[C@@H](O)[C@H](O)[C@H]2O[C@@H]2O[C@H](C(=O)O)[C@@H](O)[C@H](O)[C@H]2O)CC[C@]2(C)[C@H]3C(=O)C=C4[C@@H]5C[C@@](C)(C(=O)O)CC[C@]5(C)CC[C@@]4(C)[C@]3(C)CC[C@@H]12` [Glycyrrhizin, reference compound], in data set [2] (sweetness depends on the tested concentration compared with sucrose), the “times sweeter than sucrose (sugar)” value is 30 to 50 times.
As for `NCCCC[C@H](N)C(=O)O` [14.7 mg Lys], in data set [3] (setting [10]), the Smell result was “Popcorn” and the Taste entry is “Slightly sweet”.
`NC(=O)CC[C@H](N)C(=O)O` [14.62 mg Gln]: the Taste result in data set [3] (setting [10]) was “Slightly sweet”.
For `OC[C@H]1OC(O)[C@H](O)[C@@H](O)[C@@H]1O` (stereo partly drawn) [10 mMol Glu], the Smell entry in data set [1] (setting [11]) and in data set [1] (setting [12]) was “Slightly Caramel” in each case.
Consider `C[C@H](N)C(=O)O` [8.91 mg Ala], for which the Taste entry in data set [3] (setting [10]) is given as “Slightly sweet”.
On to `C[C@@H](O)[C@H](N)C(=O)O` [11.91 mg Thr], for which, in data set [3] (setting [10]), the Smell result is recorded as “Vanilla, butter” and the Taste entry is on record as “Slightly sweet”.
The like results for `CSCC[C@H](N)C(=O)O` [14.9 mg Met] were, in that order, “Sulfuric” and “Slightly sweet”.
Consider `O=C(O)[C@@H]1CCCN1` [11.5 mg Pro], for which the Taste result in data set [3] (setting [10]) is “Slightly sweet”.
`N[C@@H](CS)C(=O)O` [12.1 mg Cys]: in data set [3] (setting [10]), the Smell entry is “Unpleasant (sulfur)” and the Taste entry is reported as “Slightly sweet”.
On the same counts, the results for `N[C@@H](Cc1c[nH]c2ccccc12)C(=O)O` [20.42 mg Try] are “Unpleasant (fecal)” and “Slightly sweet”.
Consider `O=C[C@H](O)[C@@H](O)[C@H](O)CO` [Xyl], for which the figures for the “% degradation” value in data set [4] (pH = 5.5), in data set [4] (pH = 7.0) and in data set [4] (pH = 8.5) were 4.59%, 6.3% and 9.47%, respectively.
Consider `C=C1C[C@@]23CC[C@H]4[C@@](C)(CCC[C@@]4(C)C(=O)O[C@@H]4O[C@H](CO)[C@@H](O)[C@H](O)[C@H]4O)[C@@H]2CC[C@]1(O[C@@H]1O[C@H](CO)[C@@H](O)[C@H](O[C@@H]2O[C@H](CO)[C@@H](O)[C@H](O)[C@H]2O)[C@H]1O[C@@H]1O[C@H](CO)[C@@H](O)[C@H](O)[C@H]1O)C3` [Reb-A, Rebaudioside A], for which the “active iron-III reduction (anti-oxidant properties)” value in data set [5] is recorded as “substantial anti-oxidant properties”. Besides, in data set [6], the “radical scavenging properties (anti-oxidant properties)” value is reported as “substantial anti-oxidant properties”.
For `N[C@H](Cc1ccccc1)C(=O)O` [Phe], in data set [7] (setting [13]), the Taste entry is recorded as “sweet”.
For the molecule `CC[C@H](C)[C@H](N)C(=O)O` [13.11 mg Ile], in data set [3] (setting [10]), the Smell entry is on record as “Coffee” and the Taste entry is reported as “Slightly sweet”.
In the case of `N[C@@H](Cc1ccccc1)C(=O)O` [3.3 mMol Phe], the Smell result in data set [1] (Table 52.6, Glycerin 10 ml, 100° C., 5 min) was “Slightly bloomy”; in data set [1] (Table 52.6, Glycerin 10 ml, 100° C., 10 min), “flowery/bloomy”; in data set [1] (Table 52.6, Glycerin 10 ml, 100° C., 20 min), “flowery/bloomy”; in data set [1] (setting [11]), “flowery/bloomy”; in data set [1] (setting [12]) it was “flowery/bloomy”.
With `C[C@H](N)C(=O)O` [0.1 mMol Ala], in data set [1] (setting [14]), the Smell result is on record as “Agar” and the Taste result is listed as “sweet”.
Regarding `N[C@@H](CO)C(=O)O` [10.5 mg Ser], in data set [3] (setting [10]), the Smell result was “Lotus flower” and the Taste entry is “Slightly sweet”.
As for `O=C[C@H](O)[C@@H](O)[C@H](O)[C@H](O)C(=O)O` [Glucuronic Acid], in data set [7] (setting [13]), the Smell result is “burnt bread” and the Taste result is “Bitter”.
Consider `COc1ccc(CCC(=O)c2c(O)cc(O[C@@H]3O[C@H](CO)[C@@H](O)[C@H](O)[C@H]3O[C@@H]3O[C@@H](C)[C@H](O)[C@@H](O)[C@H]3O)cc2O)cc1O` [NHDC, Neohesperidin dihydrochalcone, reference compound], for which the “sensory properties (sweetness, onset, mouth-feel, lingering)” value in data set [8] (in water, 4.5 ppm Thaumatin and/or 50 ppm GSGs and SGs with NHDC) is on record as “long lasting lingering”.
On to `OC[C@H]1OC(O)[C@H](O)[C@@H](O)[C@@H]1O` (stereo partly drawn) [9 mg Glucose], for which, in data set [7] (setting [15]), the Smell result was “neutral” and the Taste entry is recorded as “Sweet”.
Consider `C=C1C[C@@]23CC[C@H]4[C@@](C)(CCC[C@@]4(C)C(=O)O[C@@H]4O[C@H](CO)[C@@H](O)[C@H](O)[C@H]4O)[C@@H]2CC[C@]1(O[C@@H]1O[C@H](CO)[C@@H](O)[C@H](O[C@@H]2O[C@H](CO)[C@@H](O)[C@H](O)[C@H]2O)[C@H]1O[C@@H]1O[C@H](CO)[C@@H](O)[C@H](O)[C@H]1O)C3` [0.05 mMol Reb-A], for which, in data set [1] (setting [14]), the Smell entry is given as “neutral/unpleasant” and the Taste result was “sweet”.
As to `O=C[C@H](O)[C@H]1OC(=O)[C@@H](O)[C@H]1O` [0.1 mMol GlucLac], in data set [1] (setting [16]), the Smell entry is recorded as “Burnt sugar”.
In the case of `N[C@@H](Cc1ccccc1)C(=O)O` [16.5 mg Phe], the Smell result in data set [3] (Example 58, after reaction) is given as “Caramel, burnt”; in data set [3] (Example 58, before reaction), “Neutral”; in data set [3] (setting [10]), “Bloomy, caramel”; in data set [7] (setting [15]), “neutral”. Besides, the Taste entry in data set [3] (Example 58, after reaction, after dilution 1:20) is “Sweet”; in data set [3] (setting [10]), “Slightly sweet”; in data set [7] (setting [15]), “No taste”.
Take `COc1ccc(CCC(=O)c2c(O)cc(O[C@@H]3O[C@H](CO)[C@@H](O)[C@H](O)[C@H]3O[C@@H]3O[C@@H](C)[C@H](O)[C@@H](O)[C@H]3O)cc2O)cc1O` [10 ppm NHDC]: the Sensory evaluation entry in data set [8] (combinations of EPCalin and NHDC in water) was “Sweet, steep onset of sweetness, no lingering”.
Turning to `N[C@@H](Cc1ccccc1)C(=O)O` [Phe 60 mMol], in data set [1] (setting [9]), the Smell result is given as “flowery/bloomy-caramel” and the Taste result is on record as “Sweet”.
Take `N[C@@H](Cc1ccccc1)C(=O)O` [0.1 mMol Phe]: in data set [1] (setting [16]), the “Intensity of Smell” value was “+” and the Smell result is “Caramel, burnt”.
On to `O=C1O[C@@H]2[C@@H](O)[C@H](O)O[C@@H]2C1O` (stereo partly drawn) [Glucuronolactone], for which, in data set [7] (setting [13]), the Smell entry was “Burnt sugar” and the Taste result was “Bitter”.
With `N[C@@H](Cc1ccc(O)cc1)C(=O)O` [18.1 mg Tyr], in data set [3] (setting [10]), the Smell entry is given as “neutral” and the Taste entry is “Slightly sweet”.

B1: Miraculin: A protein that does not taste sweet by itself but modifies taste receptors to make sour things taste sweet temporarily (protein, UniProt P13087 30-220, looked up)
Miraculin: DSAPNPVLDIDGEKLRTGTNYYIVPVLRDHGGGLTVSATTPNGTFVCPPRVVQTRKEVDHDRPLAFFPENPKEDVVRVSTDLNINFSAFMPCRWTSSTVWRLDKYDESTGQYFVTIGGVKGNPGPETISSWFKIEEFCGSGFYKLVFCPTVCGSCKVKCGDVGIYIDQKGRRRLALSDKPFAFEFNKTVYF
Turning to B1, the “Notes (sweet taste)” value in data set [2] (in vivo) is reported as “A protein that does not taste sweet by itself”.
